# Assays:
# ovariectomized rats [1] = assay: Liver levels and biliary secretion of α-tocopherol after 8 weeks of dietary carnitine (bile duct cannulation); assay type: in vivo, rat
# Procedure: Thirty two 10 weeks old female Sprague-Dawley rats weighing 214±6 g (Harlan Sprague Dawley, Indianapolis, Ind.) were placed individually in plastic cages with stainless steel wire-bottoms in a windowless room at a controlled temperature of about 23° C. and subjected to a light-dark cycle with the light period from 3:30 pm to 3:30 am and the dark period from 3:30 am to 3:30 pm. The rats were acclimatized for 1 week with free access to the deionized water and ad libitum fed a zinc-adequate AIN-93G diet (Reeves et al., J Nutr 1993;123:1939-1951) formulated by Dyets, Inc. (Bethlehem, Pa., USA) with 7% soybean oil as a fat source. Zinc carbonate was added to provide the desired levels of zinc. At the end of the first week, at the average body weight of 230±12 g, the rats were ovariectomized under halothane anesthesia after 16 hours of fasting. Initial blood samples (week 0) were taken from 5 randomly selected rats. After 1 week of postoperative recovery, rats were divided into the following two experimental groups by matching body weight: One group of rats was fed a zinc-adequate AIN-93G diet containing α-tocopherol-stripped soybean oil; 150 ppm Sipernat® 50, which is hydrated silica available from Degussa Corporation, Ridgefield, N.J.; and supplemented with 150 mg/kg L-carnitine. A control group was fed the same diet, except that the 150 mg/kg of L-carnitine was substituted with 150 ppm of α-D-glucose. The normal food intake for both groups was around 15 g/day/rat. Blood samples were taken at the beginning of 1, 3, 5, 8 weeks from 5 randomly selected rats in each group. At the end of the 8th week, bile duct cannulation was performed on the rats in both groups having an average body weight of about 340±15 g. Cannulation of the common bile duct was performed, following 16 hours food deprivation, as described previously (Noh et al., J Nutr Biochem 1999;10:110-117). Briefly, after performing a midline abdominal incision, the common bile duct was cannulated with PE-10 tubing (Clay Adams, Sparks, Md.) under halothane anesthesia (2.0% halothane in 2.01 oxygen/min). A silicone feeding catheter (Silastic medical grade tubing, Dow Coming, Midland, Mich.) was inserted into the gastric fundus region. The infusion catheter was exteriorized alongside the bile cannula through the right flank. Cannulated rats were placed in individual restraining cages and allowed to recover for at least 20 hours in a warm recovery chamber kept at about 30° C. Immediately after surgery, glucose-phosphate buffered saline (PBS) (in mmol/l: 277 glucose, 6.75 Na2HPO4, 16.5 NaH2PO4, 115 NaCl, and 5 KCI; pH 6.7) was continuously infused through the duodenal cannula at 3.0 ml/h via a syringe pump (Harvard Apparatus, Model 935, South Natick, Mass.). After postoperative recovery, rats were infused with a lipid emulsion containing 565 μmol triolein (95%, Sigma Chemical, St. Louis, Mo.), and 396 μmol sodium taurocholic acid in 24 ml of PBS. Bile was collected hourly for 8 hours in pre-weighed conical centrifuge tubes containing 30 μg of n-propyl gallate in ice filled beakers. After bile collection, the rats were killed by cervical dislocation, and the livers were dissected. The samples were stored at about −70° C. until analysis. Lipids were extracted by Folch's method (Folch et al., J Biol Chem 1957;226:497-509). The content of α-tocopherol was determined as described by Zaspel et al. (Anal. Biochem. 1983;130:146-150). […]
# ovariectomized rats [2] = assay: Lymphatic absorption of α-tocopherol after 5 weeks of dietary carnitine (mesenteric lymph duct cannulation); assay type: in vivo, rat; details: carnitine supplemented diet for 5 weeks
# Procedure: Thirty two 10 weeks old female Sprague-Dawley rats weighing 208±8 g (Harlan Sprague Dawley, Indianapolis, Ind.) were housed and fed as described in Example 1. At the end of second week, at the average body weight of 240±9 g, the rats were ovariectomized under halothane anesthesia after 16 hours fasting. Initial (0 week) blood samples were taken from 6 randomly selected rats.
# Immediately after surgery, rats were divided into the following two experimental groups as described in Example 1, i.e., one group was fed a diet supplemented with carnitine, and one control group. The normal food intake for both groups was about 15-16 g/day/rat.
# At the end of the 5th week, Lymph duct cannulation was performed on each group having an average body weight of 340±15 g. Cannulation of the mesenteric lymph duct was performed, following 16 hours food deprivation, as described previously (Noh et al., supra). Briefly, after a midline abdominal incision was performed, the mesenteric lymph duct was cannulated with polyethylene tubing (SV 31 tubing, Dural Plastics, Auburn, Australia) by securing with a drop of cyanoacrylate glue (Krazy Glue, Columbus, Ohio) under halothane anesthesia (2.0% halothane in 2.01 oxygen/min). A silicone feeding catheter (Silastic medical grade tubing, Dow Coming, Midland, Mich.) was inserted into the gastric fundus region. The infusion catheter was exteriorized alongside the lymph cannula through the right flank. Cannulated rats were placed in individual restraining cages and allowed to recover for at least 20 hours in a warm recovery chamber kept at about 30° C. Immediately following surgery, glucose-phosphate buffered saline (PBS) (in mmol/l: 277 glucose, 6.75 Na2HPO4, 16.5 NaH2PO4, 115 NaCl, and 5 KCI; pH 6.7) was continuously infused through the duodenal cannula at 3.0 ml/h via a syringe pump (Harvard Apparatus, Model 935, South Natick, Mass.).
# After postoperative recovery, rats were infused with a lipid emulsion containing 1 μCi of [carboxyl-^14C]-triolein (specific activity 112.0 mCi/mmol, DuPont NEN, Boston, Mass.), 565 μmol triolein (95%, Sigma Chemical, St. Louis, Mo.), 3.56 μmol α-tocopherol (all-rac-a-tocopherol, 97%, Aldrich Chemical, Milwaukee, Wis.), and 396 μmol sodium taurocholic acid in 24 ml of PBS. Lymph was collected hourly for 8 hours in pre-weighed conical centrifuge tubes containing 30 μg of n-propyl gallate and 4 mg of Na2EDTA in ice-filled beakers. After lymph collection, the rats were killed by cervical dislocation, and the livers were collected. The samples were stored at about −70° C. until analysis.
# From the lipid extracted (Folch et al., supra), tissue total phospholipid was measured colorimetrically by the method of Reheja et al. (J Lipid Res 1973;14:695-697). Tissue total cholesterol was determined as described by Rudel et al. (J Lipid Res 1973;21:364-366). Alpha-tocopherol was determined as described by Zaspel et al (supra) and in Example 1 above. Statistical analyses were conducted as described in Example 1.
# [3] = significant difference vs control
compound,measurement,setting,value
"C[N+](C)(C)C[C@H](O)CC(=O)[O-] [carnitine, L-carnitine]",α-tocopherol concentration per 100 mg total lipid,"ovariectomized rats [1]; liver, ovariectomized rats fed a carnitine supplemented diet, compared with control",significantly higher
same,bile flow,"ovariectomized rats [1]; ovariectomized Sprague-Dawley rats, diet with 150 mg/kg L-carnitine for 8 weeks, bile collected for 8 hours, no difference vs control, mean±SD",7.9±1.4 ml/8 hours
same,biliary secretion of α-tocopherol for 8 hours,"ovariectomized rats [1]; ovariectomized rats, diet with 150 mg/kg L-carnitine for 8 weeks, P<0.05 vs control, mean±SD",53.1 ± 9.3 nmol
same,ratio of liver α-tocopherol/phospholipid,"ovariectomized rats [1]; ovariectomized rats, diet with 150 mg/kg L-carnitine for 8 weeks, P=0.001 vs control",4.8±0.6 nmol/μmol
same,liver concentration of α-tocopherol,"ovariectomized rats [1]; ovariectomized rats, diet with 150 mg/kg L-carnitine for 8 weeks, significantly elevated vs control",129.6 ± 19.5 nmol/g
same,lymphatic absorption of α-tocopherol for 8 hours,"ovariectomized rats [2]; lipid emulsion with 3.56 μmol α-tocopherol infused, P<0.05 vs control",899±200 nmol/8 h
same,lymph flow,"ovariectomized rats [2]; lymph collected for 8 hours, no difference vs control",22.6±4.2 ml/8 hours
same,absorption of 14C-triolein,"ovariectomized rats [2]; lymph for 8 hours, P<0.05 vs control",53.5±4.0 % dose
same,ratio of lymph α-tocopherol/cholesterol,ovariectomized rats [2]; [3],82.7±17.1 nmol/μmol
same,ratio of lymph α-tocopherol/phospholipid,ovariectomized rats [2]; [3],46.9±8.8 nmol/μmol
